According to patent US8937180B2, “Method for preparing a polymer conjugate” (Nektar Therapeutics, priority 2006, dated 2015):

Legend:
[1] = Maximum tolerated dose in tumor-bearing athymic nude mice; conditions: mouse, in vivo, intravenous
DU-145 prostate tumors = experiment: Anti-tumor activity in mice implanted with DU-145 prostate tumors; conditions: two doses (q7d×2), FIG. 2

With `CC(=O)O[C@@]12CO[C@@H]1C[C@H](O)[C@@]1(C)C(=O)[C@H](O)C3=C(C)[C@@H](OC(=O)[C@H](O)[C@@H](NC(=O)OC(C)(C)C)c4ccccc4)C[C@@](O)([C@@H](OC(=O)c4ccccc4)[C@H]21)C3(C)C` [docetaxel, Docetaxel] the MTD at 78 day ([1]; athymic nude, mice with DU-145 prostate tumors) was at most 30 mg/kg, the MTD ([1]; athymic nude mice, H460 NSCLC tumors, 2nd study) was at most 30 mg/kg and the “anti-tumor effect on tumor growth” value (DU-145 prostate tumors; 3 doses tested, 78 day observation period) was “good activity”. For the same compound, the “time after which tumors recover and grow” value (DU-145 prostate tumors) was 30 to 50 days.
